Read-outs that look alike come from different tables or passages of the source. Some results are limits rather than exact numbers.

The source of these data is patent publication US9834558B2, “Substituted bridged urea analogs as sirtuin modulators” (GLAXOSMITHKLINE LLC, priority 2013, dated 2017).

This experiment deals with T1, SIRT1 (Homo sapiens, UniProt Q96EB6).
T1 sequence (Q96EB6 1-747): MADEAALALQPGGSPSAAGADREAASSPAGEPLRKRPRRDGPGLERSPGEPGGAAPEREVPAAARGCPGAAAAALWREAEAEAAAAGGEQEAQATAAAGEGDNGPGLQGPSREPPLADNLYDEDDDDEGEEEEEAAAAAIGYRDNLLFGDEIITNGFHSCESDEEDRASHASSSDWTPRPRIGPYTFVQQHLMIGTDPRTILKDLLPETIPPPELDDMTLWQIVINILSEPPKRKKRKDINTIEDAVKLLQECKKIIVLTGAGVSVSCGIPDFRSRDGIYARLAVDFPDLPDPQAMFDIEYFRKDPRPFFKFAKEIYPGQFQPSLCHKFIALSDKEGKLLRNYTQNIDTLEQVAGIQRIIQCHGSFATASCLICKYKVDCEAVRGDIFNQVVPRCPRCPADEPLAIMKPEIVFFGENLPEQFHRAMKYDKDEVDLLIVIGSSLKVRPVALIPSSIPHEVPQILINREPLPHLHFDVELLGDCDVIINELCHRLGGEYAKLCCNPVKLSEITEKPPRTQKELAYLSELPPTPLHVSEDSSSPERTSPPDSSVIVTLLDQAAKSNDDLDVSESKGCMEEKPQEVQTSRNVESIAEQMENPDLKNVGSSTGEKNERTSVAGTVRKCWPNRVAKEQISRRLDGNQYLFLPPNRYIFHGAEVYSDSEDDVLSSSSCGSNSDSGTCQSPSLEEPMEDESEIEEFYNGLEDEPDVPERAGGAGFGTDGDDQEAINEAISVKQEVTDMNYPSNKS
Description: Trp mass spectrometry assay of SIRT1 activation. The format is biochemical. Conditions: for TRP Activity (EC1.5): EC1.5 = concentration that results in 150% activation of SIRT1; for Emax: read-out: TRP MAX RESP (percent maximum fold activation). In short, it runs like this: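 N-terminal His-tagged human SIRT1 (10 nM, E. coli BL21(DE3)) with 0.5 μM Ac-RHKK(Ac)W-NH2 peptide and 120 μM βNAD+, 25 min at 25 °C in HEPES pH 7.5, formic acid stop. OAADPR or deacetylated peptide quantified by mass spectrometry; EC1.5 (50% activity increase over control) and Percent Maximum Activation reported.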

Where [1] appears, read: Trp peptide assay, maximum activity relative to control (100%).

For `Cc1cc(-c2ccc3c(n2)N(C(=O)Nc2cccc4nnc(C)cc24)[C@H]2CCN3C2)ccn1` [(9S)-N-(3-methylcinnolin-5-yl)-5-(2-methylpyridin-4-yl)-1,6,8-triazatricyclo[7.2.1.0 {2,7}]dodeca-2(7),3,5-triene-8-carboxamide], the “TRP Activity (EC1.5)” value (Trp peptide assay) was “B (B (EC1.5 1-25 μM))”. In addition, the Emax under setting [1] is > 150%.
For `Cc1ccnc(NC(=O)N2c3nc(-c4ccnc(C)c4)ccc3N3CC[C@H]2C3)c1` [(9S)-N-(4-methylpyridin-2-yl)-5-(2-methylpyridin-4-yl)-1,6,8-triazatricyclo[7.2.1.0^2,7]dodeca-2,4,6-triene-8-carboxamide], in that order: “B (B (EC1.5 1-25 μM))” and > 150%.
The like results for `Cc1cc(-c2ccc3c(n2)N(C(=O)Nc2cnc(C4CC4)cn2)[C@H]2CCN3C2)ccn1` [(9S)-N-(5-cyclopropylpyrazin-2-yl)-5-(2-methylpyridin-4-yl)-1,6,8-triazatricyclo[7.2.1.0 {2,7}]dodeca-2(7),3,5-triene-8-carboxamide] were, in that order, “A (A (EC1.5<1 μM))” and > 150%.
For `CCOc1cnc(NC(=O)N2c3nc(-c4ccnc(C)c4)ccc3N3CC[C@H]2C3)cn1` [(9S)-N-(5-ethoxypyrazin-2-yl)-5-(2-methylpyridin-4-yl)-1,6,8-triazatricyclo[7.2.1.0 {2,7}]dodeca-2(7),3,5-triene-8-carboxamide], in that order: “B (B (EC1.5 1-25 μM))” and > 150%.
Take `CCc1cnc(NC(=O)N2c3nc(-c4ccnc(C)c4)ccc3N3CC[C@H]2C3)cn1` [(9S)-N-(5-ethylpyrazin-2-yl)-5-(2-methylpyridin-4-yl)-1,6,8-triazatricyclo[7.2.1.0 {2,7}]dodeca-2(7),3,5-triene-8-carboxamide]: the “TRP Activity (EC1.5)” value (Trp peptide assay) is reported as “A (A (EC1.5<1 μM))”. The Emax under setting [1] was > 150%.
Consider `CCc1cnc(NC(=O)N2c3nc(-c4ccc(C)nc4)ccc3N3CC[C@H]2C3)cn1` [(9S)-N-(5-ethylpyrazin-2-yl)-5-(6-methylpyridin-3-yl)-1,6,8-triazatricyclo[7.2.1.0^{2,7}]dodeca-2,4,6-triene-8-carboxamide], for which the “TRP Activity (EC1.5)” value (Trp peptide assay) is given as “B (B (EC1.5 1-25 μM))”. Besides, under setting [1], the Emax was > 150%.
Regarding `O=C(Nc1cncc(F)c1)N1c2nc(-c3ccnc(C(F)(F)F)c3)ccc2N2CCC[C@H]1C2` [(9S)-N-(5-fluoropyridin-3-yl)-5-[2-(trifluoromethyl)pyridin-4-yl]-1,6,8-triazatricyclo[7.3.1.0 {2,7}]trideca-2(7),3,5-triene-8-carboxamide], the “TRP Activity (EC1.5)” value (Trp peptide assay) is “A (A (EC1.5<1 μM))”. In addition, under setting [1], the Emax is > 150%.
The like results for `Cc1cncc(NC(=O)N2c3nc(-c4ccnc(C)c4)ccc3N3CC[C@H]2C3)c1` [(9S)-N-(5-methylpyridin-3-yl)-5-(2-methylpyridin-4-yl)-1,6,8-triazatricyclo[7.2.1.0 {2,7}]dodeca-2(7),3,5-triene-8-carboxamide] were, in that order, “B (B (EC1.5 1-25 μM))” and > 150%.
For `Cc1cc(-c2ccc3c(n2)N(C(=O)Nc2cncc(C4CC4)n2)[C@H]2CCN3C2)ccn1` [(9S)-N-(6-cyclopropylpyrazin-2-yl)-5-(2-methylpyridin-4-yl)-1,6,8-triazatricyclo[7.2.1.0 {2,7}]dodeca-2(7),3,5-triene-8-carboxamide], in that order: “A (A (EC1.5<1 μM))” and > 150%.
The like results for `CCOc1cncc(NC(=O)N2c3nc(-c4ccnc(C)c4)ccc3N3CC[C@H]2C3)n1` [(9S)-N-(6-ethoxypyrazin-2-yl)-5-(2-methylpyridin-4-yl)-1,6,8-triazatricyclo[7.2.1.0 {2,7}]dodeca-2(7),3,5-triene-8-carboxamide] were, in that order, “A (A (EC1.5<1 μM))” and > 150%.
`CCc1cncc(NC(=O)N2c3nc(-c4ccnc(C)c4)ccc3N3CC[C@H]2C3)n1` [(9S)-N-(6-ethylpyrazin-2-yl)-5-(2-methylpyridin-4-yl)-1,6,8-triazatricyclo[7.2.1.0 {2,7}]dodeca-2(7),3,5-triene-8-carboxamide]: the “TRP Activity (EC1.5)” value (Trp peptide assay) is reported as “A (A (EC1.5<1 μM))”. Besides, the Emax under setting [1] is > 150%.
Turning to `Cc1ccc(-c2ccc3c(n2)N(C(=O)Nc2nc4ccc(F)cc4s2)[C@H]2CCN3C2)cn1` [(9S)-N-(6-fluoro-1,3-benzothiazol-2-yl)-5-(6-methylpyridin-3-yl)-1,6,8-triazatricyclo[7.2.1.0 {2,7}]dodeca-2,4,6-triene-8-carboxamide], the Emax is > 150%. Where the note is “Trp peptide assay”, the “TRP Activity (EC1.5)” value is listed as “B (B (EC1.5 1-25 μM))”.
As for `Cc1cc(-c2ccc3c(n2)N(C(=O)Nc2cncc(F)n2)[C@H]2CCN3C2)ccn1` [(9S)-N-(6-fluoropyrazin-2-yl)-5-(2-methylpyridin-4-yl)-1,6,8-triazatricyclo[7.2.1.0 {2,7}]dodeca-2(7),3,5-triene-8-carboxamide], for the setting “Trp peptide assay”, the “TRP Activity (EC1.5)” value is given as “A (A (EC1.5<1 μM))”. Further, the Emax under setting [1] was > 150%.
For `COc1cncc(NC(=O)N2c3nc(-c4ccnc(C)c4)ccc3N3CCC[C@H]2C3)n1` [(9S)-N-(6-methoxypyrazin-2-yl)-5-(2-methylpyridin-4-yl)-1,6,8-triazatricyclo[7.3.1.0 {2,7}]trideca-2(7),3,5-triene-8-carboxamide], in that order: “A (A (EC1.5<1 μM))” and > 150%.
For `Cc1cc(-c2ccc3c(n2)N(C(=O)Nc2cncc(C)n2)[C@H]2CCCN3C2)ccn1` [(9S)-N-(6-methylpyrazin-2-yl)-5-(2-methylpyridin-4-yl)-1,6,8-triazatricyclo[7.3.1.0 {2,7}]trideca-2(7),3,5-triene-8-carboxamide], in that order: “B (B (EC1.5 1-25 μM))” and > 150%.
The like results for `Cc1ccc(-c2ccc3c(n2)N(C(=O)Nc2cncc(C)n2)[C@H]2CCN3C2)cn1` [(9S)-N-(6-methylpyrazin-2-yl)-5-(6-methylpyridin-3-yl)-1,6,8-triazatricyclo[7.2.1.0 {2,7}]dodeca-2,4,6-triene-8-carboxamide] were, in that order, “B (B (EC1.5 1-25 μM))” and > 150%.
On to `Cc1ccc(NC(=O)N2c3nc(-c4ccnc(C)c4)ccc3N3CC[C@H]2C3)cn1` [(9S)-N-(6-methylpyridin-3-yl)-5-(2-methylpyridin-4-yl)-1,6,8-triazatricyclo[7.2.1.0 {2,7}]dodeca-2(7),3,5-triene-8-carboxamide], for which the “TRP Activity (EC1.5)” value (Trp peptide assay) is reported as “B (B (EC1.5 1-25 μM))”. Moreover, under setting [1], the Emax is > 150%.
For `Cc1ccc(-c2ccc3c(n2)N(C(=O)NCC2CC2)[C@H]2CCN3C2)cn1` [(9S)-N-(cyclopropylmethyl)-5-(6-methylpyridin-3-yl)-1,6,8-triazatricyclo[7.2.1.0^{2,7}]dodeca-2,4,6-triene-8-carboxamide], in that order: “B (B (EC1.5 1-25 μM))” and > 150%.
The like results for `Cc1cc(-c2ccc3c(n2)N(C(=O)Nc2nc(C)c(C)s2)[C@H]2CCCN3C2)ccn1` [(9S)-N-(dimethyl-1,3-thiazol-2-yl)-5-(2-methylpyridin-4-yl)-1,6,8-triazatricyclo[7.3.1.0 {2,7}]trideca-2(7),3,5-triene-8-carboxamide] were, in that order, “A (A (EC1.5<1 μM))” and > 150%.
On to `Cc1ccc(-c2ccc3c(n2)N(C(=O)Nc2cccc4cnccc24)[C@H]2CCN3C2)cn1` [(9S)-N-(isoquinolin-5-yl)-5-(6-methylpyridin-3-yl)-1,6,8-triazatricyclo[7.2.1.0 {2,7}]dodeca-2,4,6-triene-8-carboxamide], for which the “TRP Activity (EC1.5)” value (Trp peptide assay) is listed as “B (B (EC1.5 1-25 μM))”. The Emax under setting [1] was > 150%.
For `O=C(Nc1cnccn1)N1c2nc(-c3ccn[nH]3)ccc2N2CC[C@H]1C2` [(9S)-N-(pyrazin-2-yl)-5-(1H-pyrazol-5-yl)-1,6,8-triazatricyclo[7.2.1.0 {2,7}]dodeca-2(7),3,5-triene-8-carboxamide], in that order: “B (B (EC1.5 1-25 μM))” and > 150%.
For `O=C(Nc1cnccn1)N1c2nc(-c3ccnc(C(F)(F)F)c3)ccc2N2CCC[C@H]1C2` [(9S)-N-(pyrazin-2-yl)-5-[2-(trifluoromethyl)pyridin-4-yl]-1,6,8-triazatricyclo[7.3.1.0 {2,7}]trideca-2(7),3,5-triene-8-carboxamide], in that order: “A (A (EC1.5<1 μM))” and > 150%.
